Reference: the NIST ThermoML archive (doi:10.1021/je4005883)

Columns and labels:
[1] = 298.15 K; 101.33 kPa; Liquid; Vibrating tube method
[2] = wn = mass fraction of the nth substance listed; conditions: 101.33 kPa, Liquid; for speed of sound: Pulse-echo method; for mass density: Vibrating tube method

NCCO [2-aminoethan-1-ol]
Conditions | mass density [kg/m3]
[1] | 1011.98

CCN1CCCC1=O [1-ethyl-2-pyrrolidinone] + O
[2]
Conditions | mass density, w2 = 0.7 [kg/m3] | mass density, w2 = 0.8 [kg/m3] | mass density, w2 = 0.9 [kg/m3] | speed of sound, w2 = 0.7 [m/s] | speed of sound, w2 = 0.8 [m/s] | speed of sound, w2 = 0.9 [m/s] | viscosity, w2 = 0.7 [mPa·s] | viscosity, w2 = 0.8 [mPa·s] | viscosity, w2 = 0.9 [mPa·s]
293.15 K | 1013.82 | 1007.67 | 1002.08 | 1671.7 | 1620 | 1555.7 | 2.857 | 2.068 | 1.474
303.15 K | 1008.12 | 1003.22 | 998.33 | 1658.9 | 1620 | 1568.9 | 2.03 | 1.52 | 1.123
313.15 K | 1001.9 | 998.11 | 994.6 | 1644 | 1616.3 | 1576.8 | 1.522 | 1.176 | 0.891
323.15 K | 995.12 | 992.41 | 989.74 | 1627.1 | 1608.9 | 1580.3 | 1.196 | 0.942 | 0.73

CCN1CCCC1=O [1-ethyl-2-pyrrolidinone] + NCCO
[2]
Conditions | mass density, w2 = 0.7 [kg/m3] | mass density, w2 = 0.8 [kg/m3] | mass density, w2 = 0.9 [kg/m3] | speed of sound, w2 = 0.7 [m/s] | speed of sound, w2 = 0.8 [m/s] | speed of sound, w2 = 0.9 [m/s] | viscosity, w2 = 0.7 [mPa·s] | viscosity, w2 = 0.8 [mPa·s] | viscosity, w2 = 0.9 [mPa·s]
293.15 K | 1009.04 | 1011.7 | 1014.01 | 1653.3 | 1679.7 | 1706.9 | 12.25 | 16.01 | 19.95
303.15 K | 1000.7 | 1003.49 | 1005.95 | 1618.6 | 1645.9 | 1674 | 8.104 | 10.27 | 12.48
313.15 K | 992.31 | 995.23 | 997.83 | 1584 | 1611.7 | 1641.2 | 5.666 | 6.967 | 8.35
323.15 K | 983.87 | 986.93 | 989.65 | 1549.5 | 1578.2 | 1608 | 4.173 | 5.017 | 5.863
